Laboratory results from ChEMBL document CHEMBL1201862, “PubChem BioAssay data set” (2004).
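Results reflect a 48-hour exposure of cells in 96-well plates to compound at five concentrations. GI50 is the concentration that inhibits growth by half.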 Calls of active or inactive are those of the source. No stated cut-off is given here; in the data, active = GI50 up to about 1.1 µM and inactive = higher.

Assays:
Experiment in all cases: inhibition of tumour cell growth, NCI panel, 48 h
[1] = test system: 786-0
[2] = test system: A549
[3] = test system: COLO 205
[4] = test system: EKVX
[5] = test system: HL-60
[6] = test system: HT-29
[7] = test system: KM12
[8] = test system: LXFL 529
[9] = test system: M19-MEL
[10] = test system: OVCAR-8
[11] = test system: RPMI-8226
[12] = test system: SF-268
[13] = test system: SF-539
[14] = test system: SNB-78
[15] = test system: UO-31
[16] = test system: XF498
[17] = test system: SN12C

Measured: GI50

CNC(=O)CN(CC(N)=O)C(N)=O
inactive: [1] > 100 µM | [2] > 100 µM | [3] > 100 µM | [4] > 100 µM | [5] > 100 µM | [6] > 100 µM | [7] > 100 µM | [8] > 100 µM | [9] > 100 µM | [10] > 100 µM | [11] > 100 µM | [12] > 100 µM | [13] > 100 µM | [14] > 100 µM | [15] > 100 µM | [16] > 100 µM

CCOC(=O)C(C(CC(=O)OC)NC(=O)OCc1ccccc1)C1(C)OCCO1 (stereo not drawn)
inactive: [1] > 100 µM | [2] > 100 µM | [3] > 100 µM | [4] > 100 µM | [5] > 100 µM | [6] > 100 µM | [8] > 100 µM | [10] > 100 µM | [11] > 100 µM | [12] > 100 µM | [13] > 100 µM | [17] > 100 µM | [15] > 100 µM | [16] 61.4 µM

NS(=O)(=O)c1ccccc1C(=O)N/N=C(\c1nc2ccc([N+](=O)[O-])cc2[nH]c1=O)C(O)c1ccc([N+](=O)[O-])cc1 (stereo not drawn)
inactive: [1] > 100 µM | [2] > 100 µM | [3] > 100 µM | [4] > 100 µM | [5] > 100 µM | [6] > 100 µM | [7] 66.2 µM | [8] > 100 µM | [9] > 100 µM | [10] > 100 µM | [11] 58.5 µM | [12] > 100 µM | [13] 49.2 µM | [17] > 100 µM | [15] 63.7 µM | [16] > 100 µM

CC(=O)OCCOCBr
inactive: [1] > 100 µM | [2] > 100 µM | [3] > 100 µM | [4] > 100 µM | [5] > 100 µM | [6] > 100 µM | [7] > 100 µM | [8] > 100 µM | [9] > 100 µM | [10] > 100 µM | [11] > 100 µM | [12] > 100 µM | [13] > 100 µM | [17] > 100 µM | [15] > 100 µM | [16] > 100 µM

CCOC(=O)CC(=O)Sc1ccccc1
inactive: [1] 19.1 µM | [2] 14.6 µM | [3] 25.9 µM | [4] 19 µM | [5] 13.4 µM | [6] 22.7 µM | [7] 25.6 µM | [9] 17.9 µM | [10] 16.9 µM | [11] 17.7 µM | [12] 3.25 µM | [13] 14 µM | [17] 10.3 µM | [15] 14.7 µM | [16] 34.4 µM

O=C1C2c3[nH]c4ccccc4c3C3CCCCCCC3C2C(=O)N1c1ccccc1 (stereo not drawn)
inactive: [1] 8.67 µM | [2] 8.65 µM | [3] 7.64 µM | [4] 24.9 µM | [6] 19.9 µM | [7] 33.6 µM | [8] 12.9 µM | [9] 10.9 µM | [10] 4.32 µM | [11] 13.4 µM | [12] 21.6 µM | [13] 12 µM | [17] 6.03 µM | [14] 13.2 µM | [16] 1.92 µM

Cc1ccc(/C=N/NS(=O)(=O)c2ccccc2)cc1C
inactive: [1] > 100 µM | [2] > 100 µM | [3] > 100 µM | [4] > 100 µM | [5] > 100 µM | [6] > 100 µM | [7] > 100 µM | [8] 36.5 µM | [9] > 100 µM | [10] > 100 µM | [11] > 100 µM | [12] > 100 µM | [13] > 100 µM | [17] > 100 µM | [14] > 100 µM | [15] > 100 µM | [16] 87.3 µM

CC(=O)OCCC(O[Si](c1ccccc1)(c1ccccc1)C(C)(C)C)C(C)(C)O (stereo not drawn)
inactive: [1] 27.4 µM | [2] 34.5 µM | [3] 15.8 µM | [4] 48.4 µM | [6] 27.4 µM | [7] 23.3 µM | [8] 42.7 µM | [9] 23.1 µM | [10] 38.9 µM | [11] 23.9 µM | [12] 38.5 µM | [13] 25.4 µM | [17] 18.3 µM | [14] 59.4 µM | [15] 22.1 µM | [16] 29.4 µM

CCCCCOCC(O)CO (stereo not drawn)
inactive: [1] > 100 µM | [2] > 100 µM | [3] > 100 µM | [4] > 100 µM | [7] > 100 µM | [10] > 100 µM | [12] > 100 µM | [13] > 100 µM | [17] > 100 µM | [14] > 100 µM | [16] 44.6 µM

O=C(CC1(O)C(=O)Nc2ccccc21)c1ccc(Cl)cc1Cl (stereo not drawn)
inactive: [1] > 100 µM | [2] > 100 µM | [3] > 100 µM | [4] > 100 µM | [5] > 100 µM | [6] > 100 µM | [8] > 100 µM | [9] > 100 µM | [10] > 100 µM | [11] > 100 µM | [12] > 100 µM | [13] > 100 µM | [17] > 100 µM | [14] > 100 µM | [15] > 100 µM | [16] > 100 µM

O=C1C2CCC(C2)C12CC1(c3ccccc3)C(=O)c3ccccc3N1O2 (stereo not drawn)
inactive: [1] > 100 µM | [2] > 100 µM | [3] > 100 µM | [4] > 100 µM | [5] 42.1 µM | [6] > 100 µM | [8] > 100 µM | [9] > 100 µM | [10] > 100 µM | [11] 58.9 µM | [12] > 100 µM | [13] > 100 µM | [17] > 100 µM | [14] > 100 µM | [15] > 100 µM | [16] > 100 µM

C[C@@H](NC1CCCC[C@@H]1O)c1ccccc1 (stereo partly drawn)
inactive: [1] > 100 µM | [2] > 100 µM | [3] > 100 µM | [4] > 100 µM | [5] > 100 µM | [6] > 100 µM | [7] > 100 µM | [8] > 100 µM | [9] > 100 µM | [10] > 100 µM | [11] > 100 µM | [17] > 100 µM | [14] > 100 µM | [15] > 100 µM | [16] > 100 µM

CC(=O)OC(C[C@H](C)[C@@H]1CC[C@]2(C)C3=CCC4C(C)(C)C(=O)CC[C@]4(C)C3CCC12C)C1OC1(C)C (stereo partly drawn)
inactive: [1] 19.7 µM | [2] 21.2 µM | [3] 19.9 µM | [4] 32.7 µM | [5] 7.29 µM | [6] 15.7 µM | [7] 20 µM | [8] 22.4 µM | [9] 31.2 µM | [10] 28.8 µM | [11] 16.7 µM | [12] 21.6 µM | [13] 41.4 µM | [15] 13.2 µM | [16] 18.5 µM
